Data as given in US9833497B2, “Human originated EGF domain proteins and use of the same” (CHENGDU SOURCEBIO LIMITED-LIABILITY COMPANY, priority 2013, dated 2017).

How the values were obtained:
Type in all cases: cell-based
E. coli DH5α = experiment: Antibacterial activity: MIC and growth curve against E. coli DH5α in 96-well plate; details: minimal inhibitory concentration against E. coli DH5α; 96-well plate, 5×10^5 CFU/mL, 37° C., judged after 8 h
Summary of the method: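 Log-phase bacteria (OD600 ~0.5) resuspended in LB at 5×10^5 CFU/mL, exposed to recombinant protein at 50, 25, 12.5 μg/mL final in triplicate, 37 °C shaking at 175 rpm. OD600 read every 30 min; MIC is lowest concentration showing no growth.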

E. coli BL21 = experiment: MIC against Gram-negative bacteria: E. coli BL21
Summary of the method: (§1)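 MIC = lowest concentration of recombinant protein showing no growth. Test proteins: purified human-derived EGF domain proteins, two-fold dilution series, three wells per concentration; inoculum 5×10^5 CFU/mL in LB; incubation 37° C with shaking at 175 rpm.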

Pseudomonas aeruginosa = experiment: MIC against Gram-negative bacteria: Pseudomonas aeruginosa
Summary of the method: as §1

Klebsiella pneumonia = experiment: MIC against Gram-negative bacteria: Klebsiella pneumonia
Summary of the method: as §1

Enterobacter cloacae = experiment: MIC against Gram-negative bacteria: Enterobacter cloacae
Summary of the method: as §1

Aeromonas hydrophila = experiment: MIC against Gram-negative bacteria: Aeromonas hydrophila
Summary of the method: as §1

Citrobacter diversus = experiment: MIC against Gram-negative bacteria: Citrobacter diversus
Summary of the method: as §1

Moraxella catarrhalis = experiment: MIC against Gram-negative bacteria: Moraxella catarrhalis
Summary of the method: as §1

Proteus mirabilis = experiment: MIC against Gram-negative bacteria: Proteus mirabilis
Summary of the method: as §1

Proteus vulgaris = experiment: MIC against Gram-negative bacteria: Proteus vulgaris
Summary of the method: as §1

Serratia marcescens = experiment: MIC against Gram-negative bacteria: Serratia marcescens
Summary of the method: as §1

[1] = 96-well plate, 5×10^5 CFU/mL, 37° C., 10 h
[2] = 10 h cultivation at 37° C., 5×10^5 CFU/mL, two-fold serial dilution

PRT18 (CQCNPHGSYGGTCDPATGQCSCRPGVGGLRCDRCEPGFWNFRGIVTDGRSGCTP; listed as Homo sapiens)
MIC (E. coli DH5α): 12.5 µg/mL | MIC (μg/mL) E. coli BL21 (E. coli BL21; E. coli BL21, 96-well plate, 5×10^5 CFU/mL, 37° C., 10 h): 50 µg/mL | MIC (μg/mL) P. aeruginosa (Pseudomonas aeruginosa; Pseudomonas aeruginosa, 96-well plate, 5×10^5 CFU/mL, 37° C., 10 h): 25 µg/mL | MIC (μg/mL) K. pneumonia (Klebsiella pneumonia; Klebsiella pneumonia, 96-well plate, 5×10^5 CFU/mL, 37° C., 10 h): 100 µg/mL | MIC (μg/mL) E. cloacae (Enterobacter cloacae; Enterobacter cloacae, 96-well plate, 5×10^5 CFU/mL, 37° C., 10 h): 50 µg/mL | MIC (μg/mL) A. hydrophila (Aeromonas hydrophila; Aeromonas hydrophila, 96-well plate, 5×10^5 CFU/mL, 37° C., 10 h): 25 µg/mL | MIC (μg/mL) C. diversus (Citrobacter diversus; Citrobacter diversus, 96-well plate, 5×10^5 CFU/mL, 37° C., 10 h): 12.5 µg/mL | MIC (μg/mL) M. catarrhalis (Moraxella catarrhalis; Moraxella catarrhalis, 96-well plate, 5×10^5 CFU/mL, 37° C., 10 h): 12.5 µg/mL | MIC (μg/mL) P. mirabilis (Proteus mirabilis; Proteus mirabilis, 96-well plate, 5×10^5 CFU/mL, 37° C., 10 h): 25 µg/mL | MIC (μg/mL) P. vulgaris (Proteus vulgaris; Proteus vulgaris, 96-well plate, 5×10^5 CFU/mL, 37° C., 10 h): 12.5 µg/mL | MIC (μg/mL) S. marcescens (Serratia marcescens; Serratia marcescens, 96-well plate, 5×10^5 CFU/mL, 37° C., 10 h): 12.5 µg/mL

PRT910 (EIDECLSHPCQNGGTCLDLPNTYKCSCPRGTQGVHCE; listed as Homo sapiens)
MIC (E. coli DH5α): 50 µg/mL | MIC (E. coli BL21; E. coli BL21, 10 h cultivation at 37° C.): 25 µg/mL | MIC (Pseudomonas aeruginosa; P. aeruginosa, 10 h cultivation at 37° C.): 12.5 µg/mL | MIC (Klebsiella pneumonia; K. pneumonia, 10 h cultivation at 37° C.): 25 µg/mL | MIC (Enterobacter cloacae; E. cloacae, 10 h cultivation at 37° C.): 50 µg/mL | MIC (Aeromonas hydrophila; A. hydrophila, 10 h cultivation at 37° C.): 12.5 µg/mL | MIC (Citrobacter diversus; C. diversus, 10 h cultivation at 37° C.): 25 µg/mL | MIC (Moraxella catarrhalis; M. catarrhalis, 10 h cultivation at 37° C.): 12.5 µg/mL | MIC (Proteus mirabilis; P. mirabilis, 10 h cultivation at 37° C.): 25 µg/mL | MIC (Proteus vulgaris; P. vulgaris, 10 h cultivation at 37° C.): 25 µg/mL | MIC (Serratia marcescens; S. marcescens, 10 h cultivation at 37° C.): 25 µg/mL

PRT1453 (DVDECAEPGLSHCHALATCVNVVGSYLCVCPAGYRGDGWHCE; listed as Homo sapiens)
MIC (E. coli DH5α): 25 µg/mL | MIC against E. coli BL21 (E. coli BL21; E. coli BL21, 5×10^5 CFU/mL, 10 h cultivation at 37° C.): 12.5 µg/mL | MIC against P. aeruginosa (Pseudomonas aeruginosa; Pseudomonas aeruginosa, 5×10^5 CFU/mL, 10 h cultivation at 37° C.): 25 µg/mL | MIC against K. pneumonia (Klebsiella pneumonia; Klebsiella pneumonia, 5×10^5 CFU/mL, 10 h cultivation at 37° C.): 50 µg/mL | MIC against E. cloacae (Enterobacter cloacae; Enterobacter cloacae, 5×10^5 CFU/mL, 10 h cultivation at 37° C.): 25 µg/mL | MIC against A. hydrophila (Aeromonas hydrophila; Aeromonas hydrophila, 5×10^5 CFU/mL, 10 h cultivation at 37° C.): 12.5 µg/mL | MIC against C. diversus (Citrobacter diversus; Citrobacter diversus, 5×10^5 CFU/mL, 10 h cultivation at 37° C.): 25 µg/mL | MIC against M. catarrhalis (Moraxella catarrhalis; Moraxella catarrhalis, 5×10^5 CFU/mL, 10 h cultivation at 37° C.): 50 µg/mL | MIC against P. mirabilis (Proteus mirabilis; Proteus mirabilis, 5×10^5 CFU/mL, 10 h cultivation at 37° C.): 12.5 µg/mL | MIC against P. vulgaris (Proteus vulgaris; Proteus vulgaris, 5×10^5 CFU/mL, 10 h cultivation at 37° C.): 25 µg/mL | MIC against S. marcescens (Serratia marcescens; Serratia marcescens, 5×10^5 CFU/mL, 10 h cultivation at 37° C.): 12.5 µg/mL

PRT537 (CDCNGNSNECLDGSGYCVHCQRNTTGEHCEKCLDGYIGDSIRGAPQFCQP; listed as Homo sapiens)
MIC (E. coli DH5α): 50 µg/mL | MIC against E. coli BL21 (E. coli BL21; [1]): 25 µg/mL | MIC against P. aeruginosa (Pseudomonas aeruginosa; [1]): 12.5 µg/mL | MIC against K. pneumonia (Klebsiella pneumonia; [1]): 25 µg/mL | MIC against E. cloacae (Enterobacter cloacae; [1]): 50 µg/mL | MIC against A. hydrophila (Aeromonas hydrophila; [1]): 25 µg/mL | MIC against C. diversus (Citrobacter diversus; [1]): 12.5 µg/mL | MIC against M. catarrhalis (Moraxella catarrhalis; [1]): 25 µg/mL | MIC against P. mirabilis (Proteus mirabilis; [1]): 12.5 µg/mL | MIC against P. vulgaris (Proteus vulgaris; [1]): 25 µg/mL | MIC against S. marcescens (Serratia marcescens; [1]): 12.5 µg/mL

PRT1170 (RNSSCLPNPCHNGGTCVVNGESFTCVCKEGWEGPICA; listed as Homo sapiens)
MIC (E. coli DH5α): 25 µg/mL | MIC E. coli BL21 (E. coli BL21; [2]): 12.5 µg/mL | MIC P. aeruginosa (Pseudomonas aeruginosa; [2]): 25 µg/mL | MIC K. pneumonia (Klebsiella pneumonia; [2]): 12.5 µg/mL | MIC E. cloacae (Enterobacter cloacae; [2]): 100 µg/mL | MIC A. hydrophila (Aeromonas hydrophila; [2]): 50 µg/mL | MIC C. diversus (Citrobacter diversus; [2]): 12.5 µg/mL | MIC M. catarrhalis (Moraxella catarrhalis; [2]): 50 µg/mL | MIC P. mirabilis (Proteus mirabilis; [2]): 12.5 µg/mL | MIC P. vulgaris (Proteus vulgaris; [2]): 12.5 µg/mL | MIC S. marcescens (Serratia marcescens; [2]): 25 µg/mL

PRT784 (FGKNCAGICTCTNNGTCNPIDRSCQCYPGWIGSDCS; listed as Homo sapiens)
MIC (E. coli DH5α): 50 µg/mL | MIC (μg/mL) E. coli BL21 (E. coli BL21; E. coli BL21, 10 h cultivation at 37° C., 5×10^5 CFU/mL): 25 µg/mL | MIC (μg/mL) P. aeruginosa (Pseudomonas aeruginosa; P. aeruginosa, 10 h cultivation at 37° C., 5×10^5 CFU/mL): 12.5 µg/mL | MIC (μg/mL) K. pneumonia (Klebsiella pneumonia; K. pneumonia, 10 h cultivation at 37° C., 5×10^5 CFU/mL): 50 µg/mL | MIC (μg/mL) E. cloacae (Enterobacter cloacae; E. cloacae, 10 h cultivation at 37° C., 5×10^5 CFU/mL): 12.5 µg/mL | MIC (μg/mL) A. hydrophila (Aeromonas hydrophila; A. hydrophila, 10 h cultivation at 37° C., 5×10^5 CFU/mL): 50 µg/mL | MIC (μg/mL) C. diversus (Citrobacter diversus; C. diversus, 10 h cultivation at 37° C., 5×10^5 CFU/mL): 12.5 µg/mL | MIC (μg/mL) M. catarrhalis (Moraxella catarrhalis; M. catarrhalis, 10 h cultivation at 37° C., 5×10^5 CFU/mL): 50 µg/mL | MIC (μg/mL) P. mirabilis (Proteus mirabilis; P. mirabilis, 10 h cultivation at 37° C., 5×10^5 CFU/mL): 12.5 µg/mL | MIC (μg/mL) P. vulgaris (Proteus vulgaris; P. vulgaris, 10 h cultivation at 37° C., 5×10^5 CFU/mL): 50 µg/mL | MIC (μg/mL) S. marcescens (Serratia marcescens; S. marcescens, 10 h cultivation at 37° C., 5×10^5 CFU/mL): 12.5 µg/mL
